# In publication PMC13586173, “Synthetic cannabinoid receptor agonists inhibit the cardiac voltage-gated potassium channel hERG” (Acta Pharmacologica Sinica, 2026):
# What was measured:
# [1] = Literature concentrations detected in post-mortem cases; conditions: conversion of cited ng/mL value
# hERG S624A = target: T1, hERG S624A (Homo sapiens, UniProt Q12809, S624A); experiment: Manual patch-clamp (MPC) on hERG S624A, transiently transfected CHO-K1 cells; format: cell-based
# T1 construct: expressed in transfected cells; host or cells: CHO-K1 CCL-61 (ATCC), transient, co-transfected with pcDNA3-GFP
# Excerpt: (§1) The hERG wild-type and Y652A constructs were kindly provided by Dr. Nicole Schmitt, and the eGFP-pcDNA3 construct was kindly provided by Dr. Antonios Pantazis. The S624A and S649A constructs were generated in-house from the wild-type template using the QuikChange II XL Site-Directed Mutagenesis Kit (Agilent Technologies, Santa Clara, CA, USA), in accordance with the manufacturer’s instructions. Mutagenesis primers were designed using the Agilent QuikChange Primer Design Program. Briefly, PCR amplification was performed according to the recommended cycling conditions, followed by DpnI digestion for 1 h to selectively degrade the parental (methylated) DNA template. The reaction products were then transformed into XL10-Gold ultracompetent cells. All constructs were verified by whole-plasmid sequencing (Eurofins Genomics, Germany) to confirm sequence accuracy.
# (§2) Manual patch-clamp (MPC) recordings were performed 24–48 h post-transfection. Patch pipettes were pulled from borosilicate glass and had resistances of 4–7 MΩ when filled with intracellular solution. Coverslips with CHO-K1 cells were placed in a recording chamber and continuously perfused at room temperature (22–24 °C) with extracellular solution using a gravity-fed perfusion system. […] Compounds were applied to the recorded cells by a pressurized, automated OctaFlow perfusion system (ALA Scientific Instruments). […]
# [2] = cited from earlier work
# hERG S649A = target: T2, hERG S649A (Homo sapiens, UniProt Q12809, S649A); experiment: Manual patch-clamp (MPC) on hERG S649A, transiently transfected CHO-K1 cells; format: cell-based
# T2 construct: expressed in transfected cells; host or cells: CHO-K1 CCL-61 (ATCC), transient, co-transfected with pcDNA3-GFP
# Excerpt: as §1, §2
# hERG Y652A = target: T3, hERG Y652A (Homo sapiens, UniProt Q12809, Y652A); experiment: Manual patch-clamp (MPC) on hERG Y652A, transiently transfected CHO-K1 cells; format: cell-based
# T3 construct: expressed in transfected cells; host or cells: CHO-K1 CCL-61 (ATCC), transient, co-transfected with pcDNA3-GFP
# Excerpt: as §1, §2
# KV7.1/KCNE1 = KV7.1/KCNE1 (Homo sapiens, UniProt P51787); experiment: Automated patch-clamp (APC, population patch), CHO cells stably expressing human KV7.1/KCNE1; format: cell-based
# hERG WT = target: T4, hERG WT (Homo sapiens, UniProt Q12809); experiment: Manual patch-clamp (MPC) on hERG wild type; format: cell-based
# T4 construct: expressed in transfected cells
# Description: Manual patch-clamp (MPC) recordings were performed 24–48 h post-transfection. Patch pipettes were pulled from borosilicate glass and had resistances of 4–7 MΩ when filled with intracellular solution. Coverslips with CHO-K1 cells were placed in a recording chamber and continuously perfused at room temperature (22–24 °C) with extracellular solution using a gravity-fed perfusion system. The intracellular and extracellular solutions used for MPC were identical to those used for APC electrophysiology (see above). Extracellular solution without DMSO was used as a vehicle. Compounds were diluted from the stock solution as a series of dilutions in extracellular solution (i.e., no compensation for different concentrations of DMSO in recording solutions). Compounds were applied to the recorded cells by a pressurized, automated OctaFlow perfusion system (ALA Scientific Instruments).
# Each voltage protocol was first run three times in extracellular solution, the 3rd serving as the baseline. Voltage protocols were repeated in the presence of cumulatively rising concentrations of test compound; each concentration was present for 30 s before the recording started. The signals were sampled at 5 kHz after low-pass filtering at 2 kHz.
# For Gmax (rel.), N was set to –1. For ΔV50, N was set to 1.
# Sequence of KV7.1/KCNE1 (P51787 whole entry): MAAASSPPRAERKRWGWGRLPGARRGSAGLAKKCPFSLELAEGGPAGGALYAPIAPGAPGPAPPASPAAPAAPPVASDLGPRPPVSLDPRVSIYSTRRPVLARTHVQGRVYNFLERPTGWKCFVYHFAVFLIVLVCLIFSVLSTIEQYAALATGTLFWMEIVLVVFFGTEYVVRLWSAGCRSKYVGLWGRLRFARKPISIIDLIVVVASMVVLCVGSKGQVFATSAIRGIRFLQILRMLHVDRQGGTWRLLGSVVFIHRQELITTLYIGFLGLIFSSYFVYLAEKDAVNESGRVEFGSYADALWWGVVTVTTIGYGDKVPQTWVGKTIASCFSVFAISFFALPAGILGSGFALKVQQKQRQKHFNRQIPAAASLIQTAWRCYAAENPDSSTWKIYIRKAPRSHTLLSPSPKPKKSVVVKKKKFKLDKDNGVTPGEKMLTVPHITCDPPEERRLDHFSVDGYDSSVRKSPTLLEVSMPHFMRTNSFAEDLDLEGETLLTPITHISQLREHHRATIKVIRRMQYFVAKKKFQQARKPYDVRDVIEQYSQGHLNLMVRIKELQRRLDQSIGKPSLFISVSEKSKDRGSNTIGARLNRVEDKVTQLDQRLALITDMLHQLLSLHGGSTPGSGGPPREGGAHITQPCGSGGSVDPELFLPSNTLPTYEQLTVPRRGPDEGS
# T3 sequence (Q12809 whole entry Y652A): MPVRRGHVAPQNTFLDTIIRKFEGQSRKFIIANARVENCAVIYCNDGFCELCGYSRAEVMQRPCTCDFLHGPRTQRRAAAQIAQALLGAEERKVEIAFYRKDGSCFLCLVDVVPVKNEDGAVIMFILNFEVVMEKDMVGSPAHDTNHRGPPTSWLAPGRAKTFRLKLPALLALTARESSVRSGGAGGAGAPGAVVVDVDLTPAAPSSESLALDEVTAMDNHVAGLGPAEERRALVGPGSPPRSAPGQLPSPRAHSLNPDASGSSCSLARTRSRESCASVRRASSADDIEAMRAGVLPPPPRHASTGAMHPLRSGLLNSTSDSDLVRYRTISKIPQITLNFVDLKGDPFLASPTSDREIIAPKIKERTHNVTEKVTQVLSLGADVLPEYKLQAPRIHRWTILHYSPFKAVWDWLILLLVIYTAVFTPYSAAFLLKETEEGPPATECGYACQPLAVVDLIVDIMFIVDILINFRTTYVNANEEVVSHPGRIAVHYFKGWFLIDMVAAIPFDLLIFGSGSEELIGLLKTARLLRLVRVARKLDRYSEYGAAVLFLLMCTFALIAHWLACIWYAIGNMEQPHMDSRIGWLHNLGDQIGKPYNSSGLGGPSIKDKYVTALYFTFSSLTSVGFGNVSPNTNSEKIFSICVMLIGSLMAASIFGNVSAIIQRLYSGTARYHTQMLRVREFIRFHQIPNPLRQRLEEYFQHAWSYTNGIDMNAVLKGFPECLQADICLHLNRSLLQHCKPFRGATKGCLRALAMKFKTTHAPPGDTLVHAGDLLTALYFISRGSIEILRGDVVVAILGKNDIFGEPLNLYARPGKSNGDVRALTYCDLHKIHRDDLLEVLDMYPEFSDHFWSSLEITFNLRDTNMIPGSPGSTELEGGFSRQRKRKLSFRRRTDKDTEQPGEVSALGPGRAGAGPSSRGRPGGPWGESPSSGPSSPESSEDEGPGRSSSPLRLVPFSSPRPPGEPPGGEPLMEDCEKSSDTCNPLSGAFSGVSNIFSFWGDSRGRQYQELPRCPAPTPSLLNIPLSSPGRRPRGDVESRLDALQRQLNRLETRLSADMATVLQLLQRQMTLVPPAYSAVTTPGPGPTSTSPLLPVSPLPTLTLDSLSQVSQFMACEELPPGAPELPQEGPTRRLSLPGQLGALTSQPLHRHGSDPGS
# T2 sequence (Q12809 whole entry S649A): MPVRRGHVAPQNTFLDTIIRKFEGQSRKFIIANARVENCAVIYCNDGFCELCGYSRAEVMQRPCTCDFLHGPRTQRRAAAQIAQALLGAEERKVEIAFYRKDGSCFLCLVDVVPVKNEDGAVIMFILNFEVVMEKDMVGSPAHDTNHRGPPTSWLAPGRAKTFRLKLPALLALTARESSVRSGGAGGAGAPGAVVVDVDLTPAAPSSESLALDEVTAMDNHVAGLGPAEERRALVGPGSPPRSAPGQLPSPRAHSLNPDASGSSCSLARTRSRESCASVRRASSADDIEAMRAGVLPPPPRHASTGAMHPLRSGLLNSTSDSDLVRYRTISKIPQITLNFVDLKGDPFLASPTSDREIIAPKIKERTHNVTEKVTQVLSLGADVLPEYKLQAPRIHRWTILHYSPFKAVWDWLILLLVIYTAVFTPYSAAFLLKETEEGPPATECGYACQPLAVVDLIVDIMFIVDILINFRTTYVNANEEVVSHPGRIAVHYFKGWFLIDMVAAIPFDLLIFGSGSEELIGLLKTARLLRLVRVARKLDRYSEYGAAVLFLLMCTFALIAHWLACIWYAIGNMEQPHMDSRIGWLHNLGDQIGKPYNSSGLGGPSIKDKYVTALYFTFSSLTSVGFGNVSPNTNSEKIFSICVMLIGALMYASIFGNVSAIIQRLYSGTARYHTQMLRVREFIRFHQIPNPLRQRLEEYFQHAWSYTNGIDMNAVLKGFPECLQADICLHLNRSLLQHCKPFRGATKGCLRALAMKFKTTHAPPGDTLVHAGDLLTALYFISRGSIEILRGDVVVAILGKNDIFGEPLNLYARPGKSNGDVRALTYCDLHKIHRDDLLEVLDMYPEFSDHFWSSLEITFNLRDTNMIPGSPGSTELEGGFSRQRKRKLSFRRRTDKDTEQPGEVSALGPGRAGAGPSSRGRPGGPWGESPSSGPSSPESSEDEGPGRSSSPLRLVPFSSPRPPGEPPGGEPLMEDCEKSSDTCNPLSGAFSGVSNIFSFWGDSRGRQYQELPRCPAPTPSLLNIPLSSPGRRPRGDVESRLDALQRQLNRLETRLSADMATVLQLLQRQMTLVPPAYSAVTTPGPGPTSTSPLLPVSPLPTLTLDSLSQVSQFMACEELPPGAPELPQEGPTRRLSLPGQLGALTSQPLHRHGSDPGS
# T4 sequence (Q12809 whole entry): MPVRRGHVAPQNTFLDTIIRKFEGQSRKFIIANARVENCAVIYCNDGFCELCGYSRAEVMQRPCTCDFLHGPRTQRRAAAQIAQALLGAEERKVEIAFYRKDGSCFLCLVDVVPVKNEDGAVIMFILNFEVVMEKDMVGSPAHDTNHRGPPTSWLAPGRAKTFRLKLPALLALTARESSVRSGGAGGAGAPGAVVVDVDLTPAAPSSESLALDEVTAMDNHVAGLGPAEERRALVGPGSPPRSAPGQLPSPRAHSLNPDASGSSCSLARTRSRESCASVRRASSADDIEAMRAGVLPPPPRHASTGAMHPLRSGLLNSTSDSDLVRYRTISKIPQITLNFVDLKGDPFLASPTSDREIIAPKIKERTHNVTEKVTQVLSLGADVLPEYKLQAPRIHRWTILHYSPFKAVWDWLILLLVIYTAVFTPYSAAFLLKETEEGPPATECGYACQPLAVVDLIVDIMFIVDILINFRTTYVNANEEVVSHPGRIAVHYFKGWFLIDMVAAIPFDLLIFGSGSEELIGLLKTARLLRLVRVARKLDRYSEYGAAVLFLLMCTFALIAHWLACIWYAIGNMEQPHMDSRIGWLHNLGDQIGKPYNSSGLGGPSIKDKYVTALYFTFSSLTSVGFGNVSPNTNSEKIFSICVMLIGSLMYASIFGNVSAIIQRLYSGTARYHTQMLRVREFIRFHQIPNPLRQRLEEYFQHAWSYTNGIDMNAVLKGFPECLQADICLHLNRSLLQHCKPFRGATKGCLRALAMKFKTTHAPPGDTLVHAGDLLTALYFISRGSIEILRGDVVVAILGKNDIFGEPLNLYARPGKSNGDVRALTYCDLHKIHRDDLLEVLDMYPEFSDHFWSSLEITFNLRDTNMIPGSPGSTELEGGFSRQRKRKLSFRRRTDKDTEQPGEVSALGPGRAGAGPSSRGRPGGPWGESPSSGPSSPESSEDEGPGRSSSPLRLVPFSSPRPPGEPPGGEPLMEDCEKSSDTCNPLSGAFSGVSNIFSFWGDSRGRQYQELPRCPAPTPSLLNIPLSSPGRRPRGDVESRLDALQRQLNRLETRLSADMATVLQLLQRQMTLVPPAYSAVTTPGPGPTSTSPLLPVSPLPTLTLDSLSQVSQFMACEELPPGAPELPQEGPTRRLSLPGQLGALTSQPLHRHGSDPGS
structure (smiles),measurement,setting,value
"COC(=O)C(NC(=O)c1nn(CCCCCF)c2ccccc12)C(C)(C)C (stereo not drawn) [5F-MDMB-PINACA, methyl 2-{[1-(5-fluoropentyl)-1H-indazole-3-carbonyl]amino}-3,3-dimethylbutanoate]","concentration in post-mortem cases, blood or serum (converted)",[1]; blood or serum samples,≈ 5.3 nM
same,"concentration in post-mortem case, heart muscle (converted)",[1]; heart muscle,≈ 4.8 nM
same,IC50,hERG S624A,9.6 µM
same,"concentration in post-mortem cases, blood or serum",[2]; blood or serum samples,approximately 2 ng/mL
same,"concentration in post-mortem case, heart muscle",[2]; heart muscle,1.82 ng/mL
same,IC50,hERG S649A,16.7 µM
same,IC50,hERG Y652A,7.8 µM
same,IC50,KV7.1/KCNE1,71.4 µM
same,Gmax effect on hERG versus KV7.1/KCNE1 (in words),"KV7.1/KCNE1; 10 µM, both channels by APC",effects only on hERG
same,effect on KV7.1/KCNE1 (in words),KV7.1/KCNE1; APC,small effect on KV7.1/KCNE1
same,KV7.1/KCNE1 channel Efficacy (max reduction in Gmax) Gmin,"KV7.1/KCNE1; best fit, 1 = no reduction of Gmax, 0 = complete reduction",0
same,IC50,hERG WT,4 µM
